Active and inactive are the calls of the source. No cut-off for these calls is given here.
What was measured:
[1] = biological target: T1, Mitogen-activated protein kinase 12 (Homo sapiens) (UniProt P53778); assay: Inhibition of p38-gamma (unknown origin) assessed as residual activity at 100 nM by KINOMEscan analysis relative to control
T1 sequence (whole entry): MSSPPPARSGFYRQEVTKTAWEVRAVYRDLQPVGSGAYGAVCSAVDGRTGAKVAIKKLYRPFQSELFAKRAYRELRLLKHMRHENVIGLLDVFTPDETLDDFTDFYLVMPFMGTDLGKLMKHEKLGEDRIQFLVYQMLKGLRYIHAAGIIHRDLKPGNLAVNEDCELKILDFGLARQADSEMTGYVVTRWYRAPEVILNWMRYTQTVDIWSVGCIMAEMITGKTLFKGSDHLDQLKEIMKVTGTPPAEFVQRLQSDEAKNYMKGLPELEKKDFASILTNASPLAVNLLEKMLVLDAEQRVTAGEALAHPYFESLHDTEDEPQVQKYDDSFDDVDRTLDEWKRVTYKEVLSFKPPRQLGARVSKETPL

[2] = biological target: Hepatocyte growth factor receptor (Homo sapiens) (UniProt P08581); assay: Inhibition of MET (unknown origin) assessed as residual activity at 100 nM by KINOMEscan analysis relative to control
[3] = biological target: Phosphatidylinositol 4-phosphate 5-kinase type-1 alpha (Homo sapiens) (UniProt Q99755); assay: Inhibition of PIP5K1A (unknown origin) assessed as residual activity at 100 nM by KINOMEscan analysis relative to control
[4] = biological target: T2, Serine/threonine-protein kinase D2 (Homo sapiens) (UniProt Q9BZL6); assay: Inhibition of PRKD2 (unknown origin) assessed as residual activity at 100 nM by KINOMEscan analysis relative to control
T2 sequence (whole entry): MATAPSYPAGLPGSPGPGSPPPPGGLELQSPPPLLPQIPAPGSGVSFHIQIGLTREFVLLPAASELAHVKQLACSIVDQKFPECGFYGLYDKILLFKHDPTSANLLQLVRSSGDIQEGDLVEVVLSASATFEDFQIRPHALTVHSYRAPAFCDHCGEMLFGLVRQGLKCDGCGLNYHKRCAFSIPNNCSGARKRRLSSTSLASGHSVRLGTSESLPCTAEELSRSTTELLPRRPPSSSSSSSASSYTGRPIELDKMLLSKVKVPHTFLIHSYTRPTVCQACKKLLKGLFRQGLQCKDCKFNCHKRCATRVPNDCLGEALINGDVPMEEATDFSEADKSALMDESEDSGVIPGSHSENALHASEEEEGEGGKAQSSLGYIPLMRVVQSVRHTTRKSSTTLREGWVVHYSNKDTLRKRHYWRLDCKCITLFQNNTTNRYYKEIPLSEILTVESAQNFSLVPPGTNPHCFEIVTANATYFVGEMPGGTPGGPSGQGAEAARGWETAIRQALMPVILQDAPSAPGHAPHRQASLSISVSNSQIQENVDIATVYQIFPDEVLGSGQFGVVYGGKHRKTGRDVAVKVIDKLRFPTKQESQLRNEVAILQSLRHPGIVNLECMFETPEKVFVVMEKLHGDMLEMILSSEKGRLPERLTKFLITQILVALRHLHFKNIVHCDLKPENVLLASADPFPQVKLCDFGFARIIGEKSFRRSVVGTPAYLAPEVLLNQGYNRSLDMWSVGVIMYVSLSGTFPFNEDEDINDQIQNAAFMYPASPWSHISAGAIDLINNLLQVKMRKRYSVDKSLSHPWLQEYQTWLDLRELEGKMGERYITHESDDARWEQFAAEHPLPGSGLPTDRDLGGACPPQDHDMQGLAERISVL

[5] = biological target: Tyrosine-protein kinase Fer (Homo sapiens) (UniProt P16591); assay: Inhibition of FER (unknown origin) assessed as residual activity at 100 nM by KINOMEscan analysis relative to control
[6] = biological target: GTPase KRas (Homo sapiens) (UniProt P01116); assay: Binding affinity to N-terminal His10-tagged wild-type human KRAS (1 to 169 residues) expressed in Escherichia coli assessed as binding at 1:1 stoichiometry at 100 uM incubated for 1 hr by native MS analysis
[7] = biological target: Mitogen-activated protein kinase kinase kinase kinase 5 (Homo sapiens) (UniProt Q9Y4K4); assay: Inhibition of MAP4K5 (unknown origin) assessed as residual activity at 100 nM by KINOMEscan analysis relative to control
[8] = biological target: T3, Rhodopsin kinase GRK1 (Homo sapiens) (UniProt Q15835); assay: Inhibition of GRK1 (unknown origin) assessed as residual activity at 100 nM by KINOMEscan analysis relative to control
T3 sequence (whole entry): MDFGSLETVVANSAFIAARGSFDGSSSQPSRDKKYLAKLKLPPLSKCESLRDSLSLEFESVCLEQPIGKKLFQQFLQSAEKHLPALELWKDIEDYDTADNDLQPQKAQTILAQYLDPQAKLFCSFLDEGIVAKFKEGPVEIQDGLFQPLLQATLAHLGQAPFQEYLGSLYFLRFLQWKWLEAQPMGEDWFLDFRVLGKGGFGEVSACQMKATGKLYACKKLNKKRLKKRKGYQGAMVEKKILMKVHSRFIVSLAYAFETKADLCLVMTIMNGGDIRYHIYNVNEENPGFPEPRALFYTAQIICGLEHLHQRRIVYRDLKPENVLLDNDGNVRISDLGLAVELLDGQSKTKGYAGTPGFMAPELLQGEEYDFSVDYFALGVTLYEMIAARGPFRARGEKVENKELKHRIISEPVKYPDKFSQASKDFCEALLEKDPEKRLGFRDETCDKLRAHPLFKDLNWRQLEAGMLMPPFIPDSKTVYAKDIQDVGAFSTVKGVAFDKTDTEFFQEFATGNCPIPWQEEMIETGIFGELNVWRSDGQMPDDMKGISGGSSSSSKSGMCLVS

[9] = biological target: Dual specificity protein kinase CLK4 (Homo sapiens) (UniProt Q9HAZ1); assay: Inhibition of CLK4 (unknown origin) assessed as residual activity at 100 nM by KINOMEscan analysis relative to control
[10] = test system: Serine/threonine-protein kinase B-raf (Homo sapiens), P15056 [V600E]; assay: Inhibition of BRAF V600E mutant (unknown origin) assessed as residual activity at 100 nM by KINOMEscan analysis relative to control
[11] = test system: Tyrosine-protein kinase ABL1 (Homo sapiens), P00519 [H396P]; assay: Inhibition of phosphorylated ABL1 H396P mutant (unknown origin) assessed as residual activity at 100 nM by KINOMEscan analysis relative to control
[12] = biological target: Tyrosine-protein kinase Lyn (Homo sapiens) (UniProt P07948); assay: Inhibition of LYN (unknown origin) assessed as residual activity at 100 nM by KINOMEscan analysis relative to control
[13] = biological target: Serine/threonine-protein kinase PAK 4 (Homo sapiens) (UniProt O96013); assay: Inhibition of PAK4 (unknown origin) assessed as residual activity at 100 nM by KINOMEscan analysis relative to control
[14] = biological target: Phosphatidylinositol 4,5-bisphosphate 3-kinase catalytic subunit beta isoform (Homo sapiens) (UniProt P42338); assay: Inhibition of PIK3CB (unknown origin) assessed as residual activity at 100 nM by KINOMEscan analysis relative to control

Structure (SMILES): COc1cc2ncnc(N[C@H](C)c3cccc4ccccc34)c2cc1OC
- Activity [1]: 96%
- Activity [2]: 100%
- Activity [3]: 90%
- Activity [4]: 80%
- Activity [5]: 100%
- Activity [6]: inactive
- Activity [7]: 87%
- Activity [8]: 96%
- Activity [9]: 87%
- Activity [10]: 92%
- Activity [11]: 92%
- Activity [12]: 84%
- Activity [13]: 87%
- Activity [14]: 72%

Source: ChEMBL document CHEMBL5678818, “Discovery of potent SOS1 inhibitors that block RAS activation via disruption of the RAS-SOS1 interaction” (Proc Natl Acad Sci U S A, 2019)
